The numbers were not newly measured in patent publication US20070281957A1, “Crystalline Forms of Levorphanol” (Mallinckrodt Inc., priority 2006, published 2007), which cites them from elsewhere.

For series [1] the following is noted: levorphanol free base, known physical property.
The conditions of series [2]: levorphanol free base, known physical property. The source holds these as a separate data set.

For `CN1CC[C@]23CCCC[C@H]2[C@H]1Cc1ccc(O)cc13` [Levorphanol, 3-Hydroxy-N-methylmorphinan], the “Water solubility (at 25° C.)” value in series [1] is 1840 µg/mL. Besides, the “Vapor pressure (at 25° C.)” value in series [2] is recorded as 1.04 × 10^−6 mmHg.
